Data from EP0108452A1, “Treatment of gastric inflammatory disease with cytoprotective prostaglandins and histamine-2 blocking anti-secretory agents” (THE PROCTER & GAMBLE COMPANY, priority 1982, dated 1984).

Tested on: Male Sprague-Dawley rats
Test: Cysteamine duodenal ulcer model (cysteamine gastric ulcer model)
Assay type: in vivo
Conditions: PG-V 5 mg/kg; for % of Cntrl.: damage grading score relative to veh. cntrl.; for % of Cntrl. / % of Redc'n.: oral x3; for Damage Grading Score: oral, x3 at 0, 4 and 8 hours after cysteamine 500 mg/kg s.c., lower score = greater protection; for % of Redc'n.: reduction of damage grading score vs veh. cntrl.
Description: Male Sprague-Dawley rats weighing between 180 and 230 g are fasted for 24 hours during which time they are given ad libitum access to tap water. At the end of the 24 hour fast period, 500 mg/kg of cysteamine is administered subcutaneously. At the same time, the drug or control treatment is begun. The drug or control treatment consists of administering the drug or vehicle/control at 24 hours, 28 hours, and 32 hours after the fast has begun. That is, the drug, or vehicle/control treatment is administered at 0, 4 and 8 hours after the cysteamine. 48 hours after the fasting has begun, 24 hours after the administration of cysteamine, the rats are anesthetized and sacrificed. After sacrifice, the abdominal cavity is opened, and the stomach and approximately 2 inches of duodenum are excised and removed from the rat. They are placed on a 4" x 4" labelled index card. Care must be taken not to disturb the duodenum as this could affect the grading. The stomach and duodenum are cut open along the greater curvature and longitudinally along the anti-mesenteric side, respectively. The duodenum is carefully spread out without altering the orientation of the lesions and the thickness of the mucosa. They are viewed through a stereo microscope at approximately 7x magnification for gross examination of the stomach, pylorus and duodenal surface. For each duodenum, the amount of erythema, the amount of edema, a total lesion area and the severity of the lesions are evaluated according to the grading scale in Table 1. This is also repeated for the stomach. This information is recorded. The lower the score, the greater the protection. The lowest score which an agent can achieve in this model is the maximal intrinsic activity for this agent in this model. The smallest dosage of this agent which achieves this lowest score is the lowest dosage or level of administration which yields maximal intrinsic activity for this agent. [table] In Examples I-VIII, all were conducted in accordance with the cysteamine gastric ulcer model described above. The vehicle was 0.75% polyoxyethylene (20) sorbitan mono-oleate (Tween 80). All dosages were at a rate of 2.5 ml/kg. The treatment compositions were orally dosed at a volume of 2.5 mllkg, in accordance with the model, at 24, 28 and 32 hours after the beginning of the fast, or 0, 4 and 8 hours after the subcutaneous administration of cysteamine. In preparing the prostaglandin + […] compositions, the selected amount of prostaglandin and selected amount of cimetidine were added to a volume which was equivalent to 2.5 ml/kg for each animal. This was then given to the animal at 24, 28 and 32 hours respectively, after the beginning of the fast. The damage grading score was in accordance with the table provided in the cysteamine gastric ulcer model.

[1] = Example I, Cimetidine 25 mg/kg, veh. cntrl. 9.0 ± 2.2
[2] = Example II, Cimetidine 25 mg/kg
[3] = Example II, Cimetidine 25 mg/kg, veh. cntrl. 15.5 ± 4.5
[4] = Example III, Cimetidine 50 mg/kg
[5] = Example III, Cimetidine 50 mg/kg, veh. cntrl. 18.3 ± 3.7

Compound	% of Cntrl. (Example I, Cimetidine 25 mg/kg) [%]	Damage Grading Score [1]	% of Redc'n. (Example I, Cimetidine 25 mg/kg) [%]	% of Cntrl. [2] [%]	Damage Grading Score [3]	% of Redc'n. [2] [%]	% of Cntrl. [4] [%]	Damage Grading Score [5]	% of Redc'n. [4] [%]
CCCCCC(=O)C#C[C@H]1CCC(=O)[C@@H]1OCCCCCC(=O)O [PG-V, 9,15 dioxo-7-oxa-prost-13,14-ynoic acid]	140	12.6 ± 2.6	-40	106	16.4 ± 3.3	-6	117	21.5 ± 4.6	-17
CN/C(=N/CCSCc1nc[nH]c1C)NC#N [Cimetidine]	133	12.0 ± 2.0	-33	159	24.6 ± 1.3	-59	61	11.1 ± 3.0	39
